Data set [1] deals with mice treated with carboplatin. As to the kind of experiment: Example 1: dose response of PEGylated TPO Compound No. 1 given one day after carboplatin, anemia in mice. The following applies: carboplatin alone 2x60mg/kg ip; by Day 11. It is filed as in vivo, BALB/c mouse. As for the experimental part: (§1) The effects of PEGylated TPO Compound No. 1 on mice treated with carboplatin were observed. For all examples herein, a 10 mg/ml stock solution of PEGylated TPO Compound No. 1 was prepared in sterile saline. For mixing, the preparation was placed on a gyratory shaker for 15min. at 200 rpm. This method was used to dissolve PEGylated TPO Compound No. 1 without foaming. The stock was filtered using a GV Millex (0.22um) filter. Dosing solutions were then prepared from this stock using sterile saline. The stock and dosing solutions were prepared fresh on the day of use.
The effect of PEGylated TPO Compound No. 1 on the duration and severity of anemia following treatment of mice with carboplatin as determined by changes in hemoglobin levels, red blood cell count and hematocrit, was observed. For this study, increasing amounts of PEGylated TPO Compound No. 1 were administered to mice one day following a carboplatin dose to characterize a possible dose-dependent effect on various red blood cell parameters.
(§2) The groups of mice were treated with either carboplatin or vehicle (Phosphate Buffered Saline, PBS) by intraperitoneal administration on Days -2 and -1 as delineated below. The optimal dose of carboplatin used to induce thrombocytopenia in the BALB/c mouse strain was previously determined to be a fractionated total dose of 120mg/kg given as two consecutive daily injections (i.e., 2x60mg/kg). One day following the second dose of carboplatin, groups of mice were treated with PEGylated TPO Compound No. 1 or vehicle (sterile saline, SS, preservative-free 0.9% sodium chloride) by IV (bolus) injection as delineated in Table 1. The dose was administered on a per-weight basis (100ul/10g body weight).
On Days 5, 7, 9 and 11, five mice in each test group were weighed and then euthanised using CO2-asphyxiation and exsanguinations via cardiac puncture. The blood samples were transferred to separate EDTA (lavender-top) microcontainers for hematologic evaluation. Groups of control mice (5) were processed on Days 5 and 11. The data are presented graphically as group means +SEM.

Data set [2] deals with mice treated with carboplatin. As to the kind of experiment: Example 2: dosing seven days before and/or 1 hour after carboplatin, hematological parameters in mice. In kind it is in vivo, BALB/c mouse. To be noted: carboplatin alone. As for the experimental part:
as §1
The possibility that PEGylated TPO Compound No. 1 may sensitize bone marrow hematopoietic stem cells of mice to the toxic effects of carboplatin treatment was examined. For this study, a dose of PEGylated TPO Compound No. 1 was administered to the mice seven days prior to the carboplatin dose or immediately after carboplatin treatment. An additional group was treated with PEGylated TPO Compound No. 1 both prior to and after carboplatin administration. The effect of these dosing regimens on hematological parameters was also observed.
The groups of mice were treated with either carboplatin or vehicle (Phosphate Buffered Saline, PBS) by ip administration on Days 7 and 8 as delineated below. The optimal dose of carboplatin used to induce thrombocytopenia in the BALB/c mouse strain was previously determined to be a fractionated total dose of 120mg/kg given as two consecutive daily injections (i.e., 2x60mg/kg). Seven days prior to the first carboplatin dose or one (1) hour after the second dose of carboplatin, groups of mice were treated with PEGylated TPO Compound No. 1 (300ug/kg) or vehicle (sterile saline, SS, preservative-free 0.9% sodium chloride) by IV (bolus) injection as delineated in Table 2. An additional group was treated with PEGylated TPO Compound No. 1 both before (Day 0) and after (Day 8, t=1h) the carboplatin dose. All dosing was performed on a per-weight basis (100ul/10g body weight).
On Days 14, 18, 22 and 26, five mice in each test group were weighed and then euthanised using CO2-asphyxiation and exsanguination via cardiac puncture. The blood samples were transferred to separate EDTA (lavender-top) microcontainers for hematological evaluation. Groups of control mice (5) were processed on Days 14 and 26. The data are presented graphically as group means + SEM.

Data set [3] relates to mice treated with carboplatin. As to the kind of experiment: Example 3: dosing 1 hour, 1 day or 4 days after carboplatin, anemia in mice. The following applies: carboplatin alone; surviving mice (2 mice) by Day 12 compared to control groups. It is filed as in vivo, BALB/c mouse. How it is done:
as §1
The effect of PEGylated TPO Compound No. 1 on the duration and severity of anemia following dosing regimens in which PEGylated TPO Compound No. 1 is administered at various times following the carboplatin treatment was observed. For this study, an amount of PEGylated TPO Compound No. 1 was administered to mice, one (1) hour, one (1) day or four (4) days following a carboplatin dose.
The groups of mice were treated with either carboplatin or vehicle (Phosphate Buffered Saline, PBS) by ip administration on Days -1 and 0 as delineated below. The optimal dose of carboplatin used to induce thrombocytopenia in the BALB/c mouse strain was previously determined to be a fractionated total dose of 120mg/kg given as two consecutive daily injections (i.e., 2x60mg/kg). One hour (Day 0), one day (Day 1) or four days (Day 4) following the second dose of carboplatin, groups of mice were treated with PEGylated TPO Compound No. 1 (300ug/kg) or vehicle (sterile saline, SS, preservative-free 0.9% sodium chloride) by IV (bolus) injection as delineated in Table 3. The dose was administered on a per-weight basis (100ul/10g body weight).
On Days 6, 8, 10 & 12, five mice in each test group were weighed and then euthanised using CO2-asphyxiation and exsanguinations via cardiac puncture. The blood samples were transferred to separate EDTA (lavender-top) microcontainers for hematological evaluation. Groups of control mice (5) were processed on Days 6 & 12. The data are presented graphically as group means + SEM.

The subject of the next data set is carboplatin-treated mice. As to the kind of experiment: Example 4: lower doses (30, 100, 300ug/kg) as survival factor for erythrocyte lineages in carboplatin-treated mice. To be noted: carboplatin alone; by Day 12. It is filed as in vivo, BALB/c mouse. How it is done:
as §1
The ability of PEGylated TPO Compound No. 1 to function as a survival factor for megakaryocyte and erythrocyte lineages in carboplatin-treated mice as determined by changes in hematological parameters was observed. […] In this study, the effect of lower doses of PEGylated TPO Compound No. 1 (i.e., 30, 100 and 300ug/kg) on the survival of erythrocyte lineages was examined to characterize the dose-response for this effect.
as §2, with “ip” for “intraperitoneal”, “-1” for “-2”, “0” for “-1”, “Approximately one hour” for “One day”, “4.” for “1.”
On Days 6, 8 and 12, five mice in each test group were weighed and then euthanised using CO2-asphyxiation and exsanguinations via cardiac puncture. The blood samples were transferred to separate EDTA (lavender-top) microcontainers for hematologic evaluation. Groups of control mice (5) were processed on Days 6 & 12.

The test system of data set [4] is mice treated with two rounds of carboplatin. As to the kind of experiment: Example 5: two rounds of high-dose carboplatin, hematocrit and survival of mice. It is filed as in vivo. The following applies: of the mice not utilized for hematological evaluation; carboplatin alone versus combination therapy. As for the experimental part:
as §1
Groups of mice were treated with two rounds of the chemotherapeutic agent (carboplatin) ten days apart, with each round consisting of two consecutive days of carboplatin (i.e., 70 mg/kg/day administered on Days -1 & 0 and Days 10 & 11) as delineated below. The dose of carboplatin utilized for these survival studies exceeded the maximal tolerated dose for mice (i.e., 120 mg/kg; administered as 60 mg/kg/day on 2 consecutive days). One hour following the second dose of carboplatin in each round (i.e., Day 0 and 11) mice were treated with PEGylated TPO Compound No. 1 (100ug/kg) or vehicle (sterile saline, SS, preservative-free 0.9% sodium chloride) by IV (bolus) injection as delineated below. The dose was administered on a per weight basis (100 ul/10g body weight). […]

With `N.N.O=C([O-])C1(C(=O)[O-])CCC1.[Pt+2]` [carboplatin], the “decrease in hemoglobin levels” value is listed as ~20% in data set [1] and “greater than 25%” in the data set with carboplatin-treated mice. The “lost body weight (average)” value in data set [2] (between Days 7 and 26) is on record as “approximately 4%”. The “decreases in hemoglobin levels, RBC counts and hematocrits” value in data set [2] (by Days 18 and 22 compared to control groups) was “approx. 18%”; in data set [3], “approx. 47%”. In addition, the “mice that died between days 4 and 18” value in data set [4] amounted to 7.

For the origin of these results see patent EP1984014B1, “USE OF TPO PEPTIDE COMPOUNDS AND PHARMACEUTICAL COMPOSITIONS IN THE TREATMENT OF ANEMIA” (Janssen Pharmaceutica NV, priority 2006, dated 2007).
